According to patent US20100028879A1, “Modulators of HSD17b7 for treating acne or hyperseborrhea” (GALDERMA RESEARCH & DEVELOPMENT, priority 2006, published 2010):
Where two headings read alike, the source gives them in different places.

Tested on: HSD17B7 gene
Conditions: gonadectomized mice, short-term treatment
Description: The points Veh-24h-a and Veh-24h-b show the level of expression of HSD17B7 of gonadectomized mice untreated with DHT.
The expression of the genes was analyzed on an Affymetrix station (microfluidic model; hybridization oven; scanner; computer) following the protocols provided by the company. Briefly, the total RNA isolated from the tissues was transcribed to cDNA. From the double-stranded cDNA, a cRNA labeled with biotin was synthesized using T7 polymerase and a precursor NTP conjugated to biotin. The cRNAs were then fragmented to small sized fragments. […] The Affymetrix chip is hybridized with the biotinylated cRNA, rinsed and then fluorescence labeled using a fluorophore conjugated to streptavidin. After washings, the chip is scanned and the results are calculated using the MAS5 software provided by Affymetrix. An expression value is obtained for each gene as well as the indication of the significance of the value obtained.
B. Male mice were gonadectomized and were then treated with the vehicle or DHT. The preputial glands were removed for a period ranging up to 4 days (androgenic treatment alone—observation of a short-term kinetics). The RNA was isolated and the expression of the genes was analyzed by the Affymetrix technique using two different probe sets: 1417871_at (FIGS. 2A and 2C) and 1448865_at (FIGS. 2B and 2D).

C[C@]12CCC(=O)C[C@@H]1CC[C@@H]1[C@@H]2CC[C@]2(C)[C@@H](O)CC[C@@H]12 [DHT, Dihydrotestosterone]
mRNA for HSD17B7 in the mouse preputial gland (kinetic study 15 minutes to 96 hours, effect visible at 24 and 96 hours, FIGS. 2A, 2B): moderately induced
mRNA for HSD17B7 in the mouse preputial gland (kinetic study 1 hour to 24 hours, effect starting at 12 hours, well visible at 18 and 24 hours, FIGS. 2C, 2D): induced
